Laboratory results from patent publication US11208405B2, “Pyrrole derivatives as PLK1 inhibitors” (SENTINEL ONCOLOGY LIMITED, priority 2017, dated 2021).
Counter-ions that a name gives are not always drawn. Like-named read-outs stand apart in the source and are kept apart here.

Legend:
HCT116 cells = assay: Effects on HCT116 colorectal cancer cell viability (cell titre blue, 72 hours); assay type: cell-based; conditions: Homo sapiens, HCT-116, HCT116 cell line
wild-type HeLa cell line = assay: Wild-type versus KRAS HeLa cell viability: wild-type KRAS transgene; assay type: cell-based; conditions: Homo sapiens; HeLa cells expressing wild-type KRAS, 72 hours; read-out: WT GI50
Experimental: Assay to Measure the Effects of Compounds of the Invention on Wild-Type Versus KRAS HeLa Cell Viability
Identifying synthetic lethal interactions between targeted small molecule therapies and characterised oncogenic mutations is a goal of modern oncology drug discovery efforts. To this end, PLK1-PBD inhibitors were tested on HeLa cells engineered to inducibly express wild-type or oncogenic KrasG12V transgenes using the FLP-in/T-Rex system (Invitrogen). Cells were plated, and then treated with or without Doxycycline to induce transgene expression, and then treated with serially-diluted PBD inhibitors. After 72 hours of incubation, cell viability was assessed using the Cell Titre Blue reagent (Promega) and a BMG Pherastar plate reader. The effect of PBD inhibition on cell viability with either wild-type or oncogenic G12V KRAS was assessed using the graphing/curve-fitting packages in GraphPad Prism.

Kinetic solubility = assay type: physicochemical; conditions: kinetic from dmso stock
hERG ion channel = hERG ion channel (Homo sapiens, UniProt Q12809); assay: Binding to the hERG ion channel
[1] = Determination of brain exposure following oral dosing in mice; assay type: in vivo, male CD-1 mice; conditions: male, CD-1, mouse, 10 mg/Kg PO
Experimental: Determination of Brain Exposure Following Oral Dosing in Mice An experiment was carried out on the compound of Example 33 to determine the extent of its brain penetration following oral dosing in mice. The following protocol was used. 15 male CD-1 mice (n=3/time point) were dosed perorally with the compound of Example 33 (10 mg/kg; dose concentration 1 mg/ml; dose volume 10 mL/kg). […] Animals were housed in pre-assigned housing cages until sampling. Appropriate samples were taken at […] time points and stored immediately at −20° C. Homogenisation and protein precipitation with acetonitrile was carried out for plasma and brain. Analysis was carried out with tandem mass spectrometry using electrospray ionisation. The results of the experiment are shown in FIG. 2 and in Table 10 below.

[2] = tested on: glioblastoma cell line 905984; assay: Glioblastoma cancer cell viability, cell line 905984; assay type: cell-based
Experimental: (§1) Assay to Measure the Effects of Compounds of the Invention on Glioblastoma Cancer Cell Viability
(§2) The compound of Example 33 was tested for inhibitory activity against the glioblastoma cell lines in Table 7 below.

[3] = tested on: glioblastoma cell line 906868; assay: Glioblastoma cancer cell viability, cell line 906868; assay type: cell-based
Experimental: as §1, §2

[4] = tested on: glioblastoma cell line 908144; assay: Glioblastoma cancer cell viability, cell line 908144; assay type: cell-based
Experimental: as §1, §2

[5] = tested on: glioblastoma cell line 907279; assay: Glioblastoma cancer cell viability, cell line 907279; assay type: cell-based
Experimental: as §1, §2

BUB1 = target: T1, BUB1 (Homo sapiens, UniProt O43683); assay: Kinase selectivity assay (DiscoverX KinomeScreen), BUB1; assay type: binding; conditions: BUB1, 5 μM; read-out: % Control
T1 construct: purchased DiscoverX
Experimental: (§3) The compound of Example 33 was tested for off-target activity against a panel of fifty five kinases bearing functional or structural similarity to PLK1 at a concentration of 5 μM using the DiscoverX KinomeScreen assay.

CAMKK2 = target: T2, CAMKK2 (Homo sapiens, UniProt Q96RR4); assay: Kinase selectivity assay (DiscoverX KinomeScreen), CAMKK2; assay type: binding; conditions: CAMKK2, 5 μM; read-out: % Control
T2 construct: purchased DiscoverX
Experimental: as §3

IKBKE = target: T3, IKBKE (Homo sapiens, UniProt Q14164); assay: Kinase selectivity assay (DiscoverX KinomeScreen), IKBKE; assay type: binding; conditions: read-out: % Control
T3 construct: purchased DiscoverX
Experimental: as §3

SgK110 = target: T4, SgK110 (Homo sapiens, UniProt P0C264); assay: Kinase selectivity assay (DiscoverX KinomeScreen), SgK110; assay type: binding; conditions: SgK110, 5 μM; read-out: % Control
T4 construct: purchased DiscoverX
Experimental: as §3

STK16 = target: T5, STK16 (Homo sapiens, UniProt O75716); assay: Kinase selectivity assay (DiscoverX KinomeScreen), STK16; assay type: binding; conditions: STK16, 5 μM; read-out: % Control
T5 construct: purchased DiscoverX
Experimental: as §3

STK35 = target: T6, STK35 (Homo sapiens, UniProt Q8TDR2); assay: Kinase selectivity assay (DiscoverX KinomeScreen), STK35; assay type: binding; conditions: STK35, 5 μM; read-out: % Control
T6 construct: purchased DiscoverX
Experimental: as §3

TTK = target: T7, TTK (Homo sapiens, UniProt P33981); assay: Kinase selectivity assay (DiscoverX KinomeScreen), TTK; assay type: binding; conditions: read-out: % Control
T7 construct: purchased DiscoverX
Experimental: as §3

WEE1 = target: T8, WEE1 (Homo sapiens, UniProt P30291); assay: Kinase selectivity assay (DiscoverX KinomeScreen), WEE1; assay type: binding; conditions: WEE1, 5 μM; read-out: % Control
T8 construct: purchased DiscoverX
Experimental: as §3

T8 sequence (P30291 whole entry): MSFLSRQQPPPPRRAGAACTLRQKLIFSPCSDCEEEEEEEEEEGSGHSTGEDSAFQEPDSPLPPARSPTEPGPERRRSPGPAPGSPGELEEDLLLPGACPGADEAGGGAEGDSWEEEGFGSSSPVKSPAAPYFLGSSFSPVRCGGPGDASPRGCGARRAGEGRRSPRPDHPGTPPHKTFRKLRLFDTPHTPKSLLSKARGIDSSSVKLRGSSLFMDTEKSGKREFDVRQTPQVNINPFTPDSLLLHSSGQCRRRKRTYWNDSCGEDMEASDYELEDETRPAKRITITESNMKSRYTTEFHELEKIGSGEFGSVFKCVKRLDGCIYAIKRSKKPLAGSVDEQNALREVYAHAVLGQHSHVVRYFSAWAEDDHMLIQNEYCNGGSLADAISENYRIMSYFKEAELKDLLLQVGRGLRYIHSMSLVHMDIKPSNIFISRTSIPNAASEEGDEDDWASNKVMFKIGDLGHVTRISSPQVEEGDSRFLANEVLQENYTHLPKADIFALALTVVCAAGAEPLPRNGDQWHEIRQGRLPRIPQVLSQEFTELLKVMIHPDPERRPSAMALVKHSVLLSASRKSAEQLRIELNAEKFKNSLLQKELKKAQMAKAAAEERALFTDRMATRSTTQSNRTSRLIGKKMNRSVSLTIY
T2 sequence (Q96RR4 whole entry): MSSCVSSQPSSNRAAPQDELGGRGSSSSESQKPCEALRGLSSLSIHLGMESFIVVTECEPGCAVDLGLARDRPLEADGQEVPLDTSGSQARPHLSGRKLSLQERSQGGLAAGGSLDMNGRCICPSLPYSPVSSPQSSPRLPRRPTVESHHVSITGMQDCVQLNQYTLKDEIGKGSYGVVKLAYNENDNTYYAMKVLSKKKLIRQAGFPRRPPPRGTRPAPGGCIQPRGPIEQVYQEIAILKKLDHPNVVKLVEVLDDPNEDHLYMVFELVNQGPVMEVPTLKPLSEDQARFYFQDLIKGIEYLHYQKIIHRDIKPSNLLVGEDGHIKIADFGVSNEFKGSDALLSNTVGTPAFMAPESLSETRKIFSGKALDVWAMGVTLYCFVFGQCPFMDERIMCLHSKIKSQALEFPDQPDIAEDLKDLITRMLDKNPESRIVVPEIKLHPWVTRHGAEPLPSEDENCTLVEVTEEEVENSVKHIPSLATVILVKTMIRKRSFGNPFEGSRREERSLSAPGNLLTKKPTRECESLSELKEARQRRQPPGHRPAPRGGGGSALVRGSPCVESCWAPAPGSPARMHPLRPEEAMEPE
Sequence of hERG ion channel (Q12809 whole entry): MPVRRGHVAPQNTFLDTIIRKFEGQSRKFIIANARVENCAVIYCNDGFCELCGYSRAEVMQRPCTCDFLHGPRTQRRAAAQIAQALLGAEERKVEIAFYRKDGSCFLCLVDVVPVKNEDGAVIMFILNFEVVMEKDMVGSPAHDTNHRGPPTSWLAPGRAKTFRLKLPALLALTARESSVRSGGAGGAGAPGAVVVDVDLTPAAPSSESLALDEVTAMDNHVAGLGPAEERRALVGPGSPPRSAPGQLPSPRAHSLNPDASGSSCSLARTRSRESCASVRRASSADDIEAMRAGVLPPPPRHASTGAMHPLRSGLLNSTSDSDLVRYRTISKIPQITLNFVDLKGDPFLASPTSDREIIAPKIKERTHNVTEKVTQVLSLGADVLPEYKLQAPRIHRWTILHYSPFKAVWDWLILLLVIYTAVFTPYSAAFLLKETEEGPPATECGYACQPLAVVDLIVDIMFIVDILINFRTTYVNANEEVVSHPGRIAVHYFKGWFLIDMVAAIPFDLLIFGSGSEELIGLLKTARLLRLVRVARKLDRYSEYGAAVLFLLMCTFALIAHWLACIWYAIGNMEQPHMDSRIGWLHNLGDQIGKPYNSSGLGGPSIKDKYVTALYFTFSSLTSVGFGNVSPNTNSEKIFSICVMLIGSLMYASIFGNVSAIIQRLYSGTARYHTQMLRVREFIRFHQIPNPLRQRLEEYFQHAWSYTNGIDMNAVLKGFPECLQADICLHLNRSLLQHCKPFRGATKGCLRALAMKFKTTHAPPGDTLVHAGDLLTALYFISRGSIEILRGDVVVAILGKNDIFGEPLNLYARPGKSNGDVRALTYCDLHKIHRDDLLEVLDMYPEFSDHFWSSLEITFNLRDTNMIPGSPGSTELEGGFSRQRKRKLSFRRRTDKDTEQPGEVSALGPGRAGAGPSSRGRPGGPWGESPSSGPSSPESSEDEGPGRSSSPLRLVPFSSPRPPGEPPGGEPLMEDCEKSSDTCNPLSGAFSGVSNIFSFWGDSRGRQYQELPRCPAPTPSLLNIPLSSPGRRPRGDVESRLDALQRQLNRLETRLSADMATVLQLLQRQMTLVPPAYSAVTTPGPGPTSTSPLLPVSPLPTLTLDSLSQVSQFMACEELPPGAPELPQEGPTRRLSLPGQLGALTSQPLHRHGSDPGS
T5 sequence (O75716 whole entry): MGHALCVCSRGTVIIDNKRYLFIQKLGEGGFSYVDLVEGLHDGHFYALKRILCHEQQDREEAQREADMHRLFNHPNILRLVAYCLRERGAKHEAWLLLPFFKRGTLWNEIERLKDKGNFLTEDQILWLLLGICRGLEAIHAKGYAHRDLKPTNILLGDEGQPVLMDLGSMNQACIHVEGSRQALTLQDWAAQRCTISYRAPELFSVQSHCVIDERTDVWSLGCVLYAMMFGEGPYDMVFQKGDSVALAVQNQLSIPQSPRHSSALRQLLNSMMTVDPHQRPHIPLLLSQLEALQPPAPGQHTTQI
T7 sequence (P33981 whole entry): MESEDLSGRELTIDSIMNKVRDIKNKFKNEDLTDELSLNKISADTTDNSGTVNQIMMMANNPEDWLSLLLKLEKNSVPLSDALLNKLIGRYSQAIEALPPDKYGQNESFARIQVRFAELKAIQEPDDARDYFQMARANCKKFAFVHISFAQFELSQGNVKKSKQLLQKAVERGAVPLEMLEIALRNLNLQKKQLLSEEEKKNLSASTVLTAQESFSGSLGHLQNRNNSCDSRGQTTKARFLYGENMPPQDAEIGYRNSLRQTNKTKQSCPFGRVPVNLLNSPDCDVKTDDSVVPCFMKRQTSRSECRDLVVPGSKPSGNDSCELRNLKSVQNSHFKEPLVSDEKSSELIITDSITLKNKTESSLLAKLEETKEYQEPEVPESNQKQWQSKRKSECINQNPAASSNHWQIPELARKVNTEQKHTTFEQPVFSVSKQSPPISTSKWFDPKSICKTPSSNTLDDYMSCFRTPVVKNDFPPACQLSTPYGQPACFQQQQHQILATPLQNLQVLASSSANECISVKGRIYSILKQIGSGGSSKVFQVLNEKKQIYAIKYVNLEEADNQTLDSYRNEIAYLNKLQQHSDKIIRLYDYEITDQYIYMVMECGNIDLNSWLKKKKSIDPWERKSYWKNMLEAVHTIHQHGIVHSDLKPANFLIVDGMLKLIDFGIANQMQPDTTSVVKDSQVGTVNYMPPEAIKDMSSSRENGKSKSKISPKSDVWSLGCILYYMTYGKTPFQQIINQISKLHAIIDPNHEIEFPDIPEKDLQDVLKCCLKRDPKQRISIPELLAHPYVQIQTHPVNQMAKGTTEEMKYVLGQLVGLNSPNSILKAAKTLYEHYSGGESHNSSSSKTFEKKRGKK
T6 sequence (Q8TDR2 whole entry): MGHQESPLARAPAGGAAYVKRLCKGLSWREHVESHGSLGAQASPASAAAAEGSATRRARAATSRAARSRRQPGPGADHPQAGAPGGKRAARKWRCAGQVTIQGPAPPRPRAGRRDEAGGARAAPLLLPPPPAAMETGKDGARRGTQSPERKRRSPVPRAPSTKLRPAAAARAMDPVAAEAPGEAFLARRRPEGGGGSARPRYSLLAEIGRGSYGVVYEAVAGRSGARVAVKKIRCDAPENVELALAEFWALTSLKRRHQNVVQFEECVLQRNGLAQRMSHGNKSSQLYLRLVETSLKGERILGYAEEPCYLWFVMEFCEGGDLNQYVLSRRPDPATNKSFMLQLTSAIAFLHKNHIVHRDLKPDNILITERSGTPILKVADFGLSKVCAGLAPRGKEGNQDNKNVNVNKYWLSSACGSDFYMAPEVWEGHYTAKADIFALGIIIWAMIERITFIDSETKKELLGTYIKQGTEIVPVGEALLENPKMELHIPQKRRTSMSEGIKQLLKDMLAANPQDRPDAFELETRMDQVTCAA
T4 sequence (P0C264 whole entry): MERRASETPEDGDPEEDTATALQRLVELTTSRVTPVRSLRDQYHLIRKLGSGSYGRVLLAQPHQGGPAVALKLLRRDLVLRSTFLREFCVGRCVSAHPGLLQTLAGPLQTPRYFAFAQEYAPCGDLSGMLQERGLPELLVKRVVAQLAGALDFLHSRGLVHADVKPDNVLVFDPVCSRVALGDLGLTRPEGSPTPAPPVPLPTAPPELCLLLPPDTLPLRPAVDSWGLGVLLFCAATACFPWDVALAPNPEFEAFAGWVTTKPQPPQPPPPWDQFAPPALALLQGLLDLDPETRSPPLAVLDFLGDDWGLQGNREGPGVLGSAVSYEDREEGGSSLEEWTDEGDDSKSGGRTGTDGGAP

## CN(C)CCNC(=O)c1ccc(-c2ccc(-c3ccc(Cl)cc3)n2-c2ccccc2C(F)(F)F)cc1 [Example 33, 4-[5-(4-chlorophenyl)-1-[2-(trifluoromethyl)phenyl]pyrrol-2-yl]-N-[2-(dimethylamino)ethyl]benzamide Hydrochloride]
HCT116 cells
  GI50: 10 nM
wild-type HeLa cell line
  GI50: 20 nM
Kinetic solubility
  solubility kinetic: 32 µM
hERG ion channel
  binding to the hERG ion channel: > 25 µM
[1]; brain, read-out: AUClast (Brain)
  AUC(0-t): 31900 ng·h/mL
[1]; brain, read-out: Tmax (Brain)
  Tmax: 24 h
[1]; plasma, read-out: AUClast (Plasma)
  AUC(0-t): 5030 ng·h/mL
[1]; plasma, read-out: Tmax (Plasma)
  Tmax: 8 h
[2]
  IC50: 241 nM
[3]
  IC50: 252 nM
[4]
  IC50: 2420 nM
[5]
  IC50: 27800 nM
BUB1
  remaining activity at 5 µM: 90%
CAMKK2
  remaining activity at 5 µM: 97%
IKBKE
  remaining activity at 5 µM: 75%
SgK110
  remaining activity at 5 µM: 100%
STK16
  remaining activity at 5 µM: 92%
STK35
  remaining activity at 5 µM: 71%
TTK
  remaining activity at 5 µM: 83%
WEE1
  remaining activity at 5 µM: 98%
